Laboratory results taken from ChEMBL document CHEMBL1157961, “Nitrogen-containing phorbol esters from Croton ciliatoglandulifer and their effects on cyclooxygenases-1 and -2” (J Nat Prod, 2006).
Each block holds one compound with its values, some of them ahead of it.

Legend:
[1] = molecular target: T1, Prostaglandin G/H synthase 1 (Ovis aries, UniProt P05979); assay: Inhibition of ovine COX1
T1 sequence (P05979 whole entry): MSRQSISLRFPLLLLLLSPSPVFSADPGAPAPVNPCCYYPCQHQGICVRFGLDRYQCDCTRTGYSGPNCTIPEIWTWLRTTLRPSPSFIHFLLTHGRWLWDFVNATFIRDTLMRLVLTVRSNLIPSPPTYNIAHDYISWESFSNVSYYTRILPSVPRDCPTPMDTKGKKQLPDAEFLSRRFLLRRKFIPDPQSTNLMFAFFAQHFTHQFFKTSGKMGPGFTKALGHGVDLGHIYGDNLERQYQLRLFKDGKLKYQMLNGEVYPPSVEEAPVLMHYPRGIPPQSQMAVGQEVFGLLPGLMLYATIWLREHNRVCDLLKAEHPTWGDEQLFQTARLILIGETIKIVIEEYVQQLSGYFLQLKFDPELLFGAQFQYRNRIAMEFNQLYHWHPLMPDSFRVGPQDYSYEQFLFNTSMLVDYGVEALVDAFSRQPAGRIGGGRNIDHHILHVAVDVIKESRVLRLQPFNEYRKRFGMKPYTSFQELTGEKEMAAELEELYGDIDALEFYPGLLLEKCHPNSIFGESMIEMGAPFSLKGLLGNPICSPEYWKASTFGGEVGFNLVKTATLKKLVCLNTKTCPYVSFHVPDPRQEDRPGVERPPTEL

[2] = molecular target: T2, Prostaglandin G/H synthase 2 (Homo sapiens, UniProt P35354); assay: Inhibition of human recombinant COX2
T2 sequence (P35354 whole entry): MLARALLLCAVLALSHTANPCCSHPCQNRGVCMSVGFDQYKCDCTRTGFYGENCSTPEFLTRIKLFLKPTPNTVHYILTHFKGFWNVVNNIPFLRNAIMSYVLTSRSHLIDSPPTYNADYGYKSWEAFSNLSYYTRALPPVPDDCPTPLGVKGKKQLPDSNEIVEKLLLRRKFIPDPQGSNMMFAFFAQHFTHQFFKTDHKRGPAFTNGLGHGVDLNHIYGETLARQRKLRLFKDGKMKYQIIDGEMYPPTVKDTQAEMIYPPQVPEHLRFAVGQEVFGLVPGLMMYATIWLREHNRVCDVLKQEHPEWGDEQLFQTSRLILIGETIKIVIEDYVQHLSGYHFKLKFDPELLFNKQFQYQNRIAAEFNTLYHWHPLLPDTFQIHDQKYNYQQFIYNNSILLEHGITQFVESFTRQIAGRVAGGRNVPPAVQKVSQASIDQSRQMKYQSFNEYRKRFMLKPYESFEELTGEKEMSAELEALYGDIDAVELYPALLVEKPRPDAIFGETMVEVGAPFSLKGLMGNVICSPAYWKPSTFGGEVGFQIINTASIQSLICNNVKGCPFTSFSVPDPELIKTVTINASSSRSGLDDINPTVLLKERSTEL

SMILES: CC(=O)O[C@@]12[C@H](OC(=O)[C@@H](C(C)C)N(C)C)[C@@H](C)[C@]3(O)[C@@H]4C=C(C)C(=O)[C@@H]4CC(CO)=C[C@H]3[C@@H]1C2(C)C
IC50 [1]: 1 nM
IC50 [2]: 2200 nM

SMILES: CC(=O)O[C@@]12[C@H](OC(=O)[C@@H](C(C)C)N(C)C)[C@@H](C)[C@@]3(O)[C@@H](C=C(CO)C[C@@]4(O)C(=O)C(C)=C[C@@H]34)[C@@H]1C2(C)C
IC50 [1]: 1 nM
IC50 [2]: 2200 nM

SMILES: CC(=O)O[C@@]12[C@H](OC(=O)[C@H](C(C)C)N(C)C)[C@@H](C)[C@]3(O)[C@@H]4C=C(C)C(=O)[C@@H]4CC(CO)=C[C@H]3[C@@H]1C2(C)C
IC50 [1]: > 100000 nM
IC50 [2]: > 100000 nM

IC50 [2]: > 100000 nM
SMILES: CC(=O)O[C@@]12[C@H](OC(=O)C(=C(C)C)N(C)C)[C@@H](C)[C@]3(O)[C@@H]4C=C(C)C(=O)[C@@H]4CC(CO)=C[C@H]3[C@@H]1C2(C)C
